Measured values taken from ChEMBL document CHEMBL1201862, “PubChem BioAssay data set” (2004).
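The compound was tested at five concentrations on cells cultured in 96-well plates, with a 48-hour exposure period. GI50: concentration for 50% inhibition of growth.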 Calls of active or inactive are those of the source. Rule as the data show it: active = GI50 up to about 1.1 µM and inactive = higher.

Columns and labels:
Assay in all cases: growth of human tumour cells (NCI), 48 h
786-0 = system: 786-0
A498 = system: A498
CCRF-CEM = system: CCRF-CEM
COLO 205 = system: COLO 205
HOP-92 = system: HOP-92
HT-29 = system: HT-29
Hs-578T = system: Hs-578T
IGROV-1 = system: IGROV-1
M14 = system: M14
MDA-MB-231 = system: MDA-MB-231
NCI-H226 = system: NCI-H226
NCI-H460 = system: NCI-H460
NCI/ADR-RES = system: NCI/ADR-RES
OVCAR-8 = system: OVCAR-8
PC-3 = system: PC-3
RXF 393 = system: RXF 393
SK-MEL-2 = system: SK-MEL-2
SNB-75 = system: SNB-75
TK-10 = system: TK-10
UACC-257 = system: UACC-257

Row | Structure (SMILES) | GI50 (786-0) | GI50 (A498) | GI50 (CCRF-CEM) | GI50 (COLO 205) | GI50 (HOP-92) | GI50 (HT-29) | GI50 (Hs-578T) | GI50 (IGROV-1) | GI50 (M14) | GI50 (MDA-MB-231) | GI50 (NCI-H226) | GI50 (NCI-H460) | GI50 (NCI/ADR-RES) | GI50 (OVCAR-8) | GI50 (PC-3) | GI50 (RXF 393) | GI50 (SK-MEL-2) | GI50 (SNB-75) | GI50 (TK-10) | GI50 (UACC-257)
1 | COC(=O)c1ccccc1C1CN=NC12Cc1c(C)cc(C)cc1C2=O (stereo not given) | > 100 µM (inactive) | > 100 µM (inactive) | > 100 µM (inactive) | > 100 µM (inactive) | > 100 µM (inactive) | > 100 µM (inactive) | > 100 µM (inactive) | > 100 µM (inactive) | > 100 µM (inactive) | 45.4 µM (inactive) | > 100 µM (inactive) | > 100 µM (inactive) | > 100 µM (inactive) | > 100 µM (inactive) | > 100 µM (inactive) | > 100 µM (inactive) | > 100 µM (inactive) | 58.2 µM (inactive) | > 100 µM (inactive) | > 100 µM (inactive)
2 | O=C1c2[nH]c3ccccc3c2CCN2CCCCC12 (stereo not given) | 24 µM (inactive) | 29.6 µM (inactive) | 22.6 µM (inactive) | 18.7 µM (inactive) | 18.5 µM (inactive) | 34.1 µM (inactive) | 28 µM (inactive) | 20.2 µM (inactive) | 17.9 µM (inactive) | 19.2 µM (inactive) | 27.8 µM (inactive) | 26.6 µM (inactive) | 22.8 µM (inactive) | 25.2 µM (inactive) | 18.8 µM (inactive) | 24.9 µM (inactive) | 18.5 µM (inactive) | 28.5 µM (inactive) | 27 µM (inactive) | 17.7 µM (inactive)
3 | N=c1oc2cc(O)ccc2cc1C(=O)Nc1ccccn1 | 16.4 µM (inactive) | 24.7 µM (inactive) | 27.8 µM (inactive) | 14 µM (inactive) | > 100 µM (inactive) | 29.7 µM (inactive) | > 100 µM (inactive) | 44.9 µM (inactive) | 59.7 µM (inactive) | 54.3 µM (inactive) | 90.6 µM (inactive) | 62.8 µM (inactive) | 48.8 µM (inactive) | 32.2 µM (inactive) | 40.1 µM (inactive) | 26.6 µM (inactive) | 28.8 µM (inactive) | 36.5 µM (inactive) | 41.9 µM (inactive) | > 100 µM (inactive)
4 | CC1(C)[C@@H]2CC[C@@]1(C)[C@H](O)[C@@H]2SCc1ccccc1 | 17 µM (inactive) | < 0.01 µM (active) | 19 µM (inactive) | 17.8 µM (inactive) | 13.7 µM (inactive) | 14.7 µM (inactive) | 14.2 µM (inactive) | 18.7 µM (inactive) | 15 µM (inactive) | 16.8 µM (inactive) | 18.7 µM (inactive) | 19.2 µM (inactive) | 15.8 µM (inactive) | 19.1 µM (inactive) | 20.8 µM (inactive) | 18.5 µM (inactive) | 18.1 µM (inactive) | 27.4 µM (inactive) | 22.6 µM (inactive) | 14 µM (inactive)
5 | O=C(NNCc1ccco1)c1cc2ccccc2[nH]1 | > 51.5 µM (inactive) | > 100 µM (inactive) | > 100 µM (inactive) | > 100 µM (inactive) | 48 µM (inactive) | > 86.9 µM (inactive) | 14.9 µM (inactive) | 50.7 µM (inactive) | > 94 µM (inactive) | > 100 µM (inactive) | > 100 µM (inactive) | > 71.4 µM (inactive) | > 52.4 µM (inactive) | > 53.1 µM (inactive) | > 91 µM (inactive) | > 100 µM (inactive) | > 100 µM (inactive) | 47.9 µM (inactive) | > 58.1 µM (inactive) | > 62.5 µM (inactive)
6 | O=C1C=C(Nc2ccccc2C(=O)CC(=O)C(=O)Nc2cccc(C(F)(F)F)c2)c2ccccc2C1=O | 25.8 µM (inactive) | > 100 µM (inactive) | 4.37 µM (inactive) | 66.8 µM (inactive) | 31.4 µM (inactive) | 57.4 µM (inactive) | 21 µM (inactive) | 28.4 µM (inactive) | 16.6 µM (inactive) | 20 µM (inactive) | 61.5 µM (inactive) | 27.7 µM (inactive) | 13.5 µM (inactive) | 17.3 µM (inactive) | 17.9 µM (inactive) | 20.8 µM (inactive) | 16.8 µM (inactive) | 50.4 µM (inactive) | > 96.4 µM (inactive) | 15.3 µM (inactive)
7 | Cc1c(C)c2c(c(N)c1C#N)C(=O)N(Cc1ccc(S(N)(=O)=O)cc1)C2=O | 16.8 µM (inactive) | 27.9 µM (inactive) | > 100 µM (inactive) | > 100 µM (inactive) | 13.6 µM (inactive) | > 100 µM (inactive) | > 46.3 µM (inactive) | > 38.4 µM (inactive) | 25.9 µM (inactive) | 19.7 µM (inactive) | > 30.5 µM (inactive) | > 100 µM (inactive) | > 57.9 µM (inactive) | 4.65 µM (inactive) | > 64 µM (inactive) | 7.46 µM (inactive) | > 50.1 µM (inactive) | > 35.9 µM (inactive) | 22.4 µM (inactive) | > 100 µM (inactive)
8 | COc1cc(C(=O)OC2CC34CCNC35CC(OC5(OC)C2O)c2cc3c(cc24)OCO3)ccc1O (stereo not given) | > 100 µM (inactive) | > 100 µM (inactive) | > 100 µM (inactive) | > 100 µM (inactive) | > 100 µM (inactive) | > 100 µM (inactive) | > 100 µM (inactive) | > 100 µM (inactive) | > 100 µM (inactive) | > 100 µM (inactive) | > 100 µM (inactive) | > 100 µM (inactive) | > 100 µM (inactive) | > 100 µM (inactive) | > 100 µM (inactive) | > 100 µM (inactive) | > 100 µM (inactive) | 46.8 µM (inactive) | > 100 µM (inactive) | > 100 µM (inactive)
9 | Nc1nc(N)c2nc(CNc3ccc(C(=O)O)cc3)[nH]c2n1 | > 100 µM (inactive) | > 100 µM (inactive) | > 100 µM (inactive) | > 100 µM (inactive) | > 100 µM (inactive) | > 100 µM (inactive) | > 100 µM (inactive) | > 100 µM (inactive) | > 100 µM (inactive) | > 100 µM (inactive) | > 100 µM (inactive) | > 100 µM (inactive) | > 100 µM (inactive) | > 100 µM (inactive) | > 100 µM (inactive) | > 100 µM (inactive) | > 100 µM (inactive) | > 100 µM (inactive) | > 100 µM (inactive) | > 100 µM (inactive)
